Assays:
[1] = test system: autophagocytosis in yeast; conditions: nocodazole treatment disassembling microtubules (Kirisako et al. 1999); cited from earlier work
[2] = target: autophagocytosis (luciferase uptake into isolated yeast vacuoles); assay: In vitro autophagocytosis assay (luciferase uptake into isolated vacuoles); type: biochemical, Saccharomyces cerevisiae; conditions: standard uptake reaction, cell-free, sample without inhibitor as 100% reference, FIG. 7; read-out: IC50 for prevention of vesicle formation (luciferase uptake)
Protocol: This mixture was incubated for 1 h at 27° C. A 70 μl sample was chilled on ice, diluted with 300 μl 150 mM KCl in PS buffer, centrifuged (6800×g, 4 min, 2° C., fixed angle table top centrifuge), washed twice with 300 μl 150 mM KCl in PS buffer, and resuspended in 60 μl 150 mM KCl in PS buffer. 10 μl were used to check for complete vacuole recovery by determining the protein concentration or, alternatively, the activity of endogenous Pho8p (according to Haas et al., 1994). 40 μl of the suspension were treated with proteinase K (15 min, 0° C., 275 μg/ml, added from a 5 mg/ml stock in PS) to digest surface-bound luciferase. Digestion was terminated by adding an equal volume of freshly prepared PMSF solution (0.5 mM PMSF, 150 mM KCl, in PS buffer). Luciferase activity was determined from a 25 μl aliquot in a luminometer using a luciferase kit (Berthold Detection Systems, Pforzheim) according to the instructions of the supplier.

[3] = target: firefly luciferase (Photinus pyralis, UniProt P08659); assay: Direct influence on luciferase activity (control); type: biochemical; conditions: not shown
Chain of firefly luciferase (P08659 whole entry): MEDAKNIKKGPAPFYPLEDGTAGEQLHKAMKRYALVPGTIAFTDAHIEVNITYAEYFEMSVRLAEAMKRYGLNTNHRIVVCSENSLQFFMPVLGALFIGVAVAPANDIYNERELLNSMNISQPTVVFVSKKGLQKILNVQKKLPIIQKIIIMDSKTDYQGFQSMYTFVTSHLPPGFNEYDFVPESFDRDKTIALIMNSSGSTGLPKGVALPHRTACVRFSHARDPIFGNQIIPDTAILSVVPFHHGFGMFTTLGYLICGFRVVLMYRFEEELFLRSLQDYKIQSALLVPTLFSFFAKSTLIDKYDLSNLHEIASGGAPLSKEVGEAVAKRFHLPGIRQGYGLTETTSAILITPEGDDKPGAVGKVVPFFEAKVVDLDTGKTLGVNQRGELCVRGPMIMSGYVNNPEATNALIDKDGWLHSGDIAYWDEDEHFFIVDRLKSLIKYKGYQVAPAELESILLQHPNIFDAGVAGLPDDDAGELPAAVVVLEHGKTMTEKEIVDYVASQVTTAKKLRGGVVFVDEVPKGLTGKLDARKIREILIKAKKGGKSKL

| Compound | block of autophagocytosis in yeast [1] | IC50 [2] | influence on luciferase activity by itself [3] |
| --- | --- | --- | --- |
| COC(=O)Nc1nc2ccc(C(=O)c3cccs3)cc2[nH]1 [nocodazole] | does not block autophagocytosis | – | – |
| Nc1nc2c(ncn2[C@@H]2O[C@H](COP(=O)(O)OP(=O)(O)OP(O)(O)=S)[C@@H](O)[C@H]2O)c(=O)[nH]1 [GTPγS] | – | 100 µM | did not influence luciferase activity by itself |
